Experimental data reported in ChEMBL document CHEMBL1137874, “A new class of acyclic 2-alkyl-1,2-diaryl (E)-olefins as selective cyclooxygenase-2 (COX-2) inhibitors” (Bioorg Med Chem Lett, 2004).

Biological target: T1, Prostaglandin G/H synthase 1 (Ovis aries, UniProt P05979)
T1 sequence (P05979 whole entry): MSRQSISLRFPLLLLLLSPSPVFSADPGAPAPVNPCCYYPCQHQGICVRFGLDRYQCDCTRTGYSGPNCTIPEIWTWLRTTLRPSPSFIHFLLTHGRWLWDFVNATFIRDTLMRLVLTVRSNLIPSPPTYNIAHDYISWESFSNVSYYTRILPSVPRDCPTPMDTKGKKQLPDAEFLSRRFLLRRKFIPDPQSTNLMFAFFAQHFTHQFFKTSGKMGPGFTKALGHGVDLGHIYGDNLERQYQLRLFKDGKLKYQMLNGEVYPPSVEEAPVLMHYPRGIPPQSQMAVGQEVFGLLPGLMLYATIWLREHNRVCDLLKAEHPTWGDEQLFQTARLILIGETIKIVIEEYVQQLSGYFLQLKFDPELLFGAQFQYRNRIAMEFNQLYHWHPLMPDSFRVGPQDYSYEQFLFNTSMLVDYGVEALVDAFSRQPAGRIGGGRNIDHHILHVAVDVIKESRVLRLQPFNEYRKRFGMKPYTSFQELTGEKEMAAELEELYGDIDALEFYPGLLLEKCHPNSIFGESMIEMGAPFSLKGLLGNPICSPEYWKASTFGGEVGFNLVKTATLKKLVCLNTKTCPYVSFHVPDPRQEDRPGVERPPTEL
Assay: In vitro inhibitory concentration against ovine Prostaglandin G/H synthase 1

| Structure (SMILES) | IC50 |
| --- | --- |
| CC/C(=C\c1ccccc1)c1ccc(S(C)(=O)=O)cc1 | > 100 µM |
| CCCCCCC/C(=C\c1ccccc1)c1ccc(S(C)(=O)=O)cc1 | > 100 µM |

Further lines, results first:

| IC50 | Structure (SMILES) |
| --- | --- |
| 0.03 µM | CC/C(=C\c1ccc(C)cc1)c1ccc(S(C)(=O)=O)cc1 |
| > 100 µM | CCCCCC/C(=C\c1ccccc1)c1ccc(S(C)(=O)=O)cc1 |
| > 100 µM | CCC/C(=C\c1ccccc1)c1ccc(S(C)(=O)=O)cc1 |
